Results reported in US20220112175A1, “PYRIDAZINES HERBICIDAL COMPOUNDS” (SYNGENTA CROP PROTECTION AG, priority 2019, published 2022).

Key:
Assay in all cases: Post-emergence efficacy, glasshouse pot test
Format in all cases: in vivo
[1] = system: Amaranthus palmeri (AMAPA); details: 312 h, Application rate 500 g/Ha, post-emergence spray, evaluated after 13 days, read-out: Post-emergence efficacy AMAPA (100=total damage to plant; 0=no damage to plant)
Description: (§1) Seeds of a variety of test species were sown in standard soil in pots. After cultivation for 14 days (post-emergence) under controlled conditions in a glasshouse (at 24/16° C., day/night; 14 hours light; 65% humidity), the plants were sprayed with an aqueous spray solution derived from the dissolution of the technical active ingredient formula (I) in a small amount of acetone and a special solvent and emulsifier mixture referred to as IF50 (11.12% Emulsogen EL360 TM+44.44% N-methylpyrrolidone+44.44% Dowanol DPM glycol ether), to create a 50 g/l solution which was then diluted to required concentration using 0.25% or 1% Empicol ESC70 (Sodium lauryl ether sulphate)+1% ammonium sulphate as diluent.
(§2) The test plants were then grown in a glasshouse under controlled conditions (at 24/16° C., day/night; 14 hours light; 65% humidity) and watered twice daily. After 13 days the test was evaluated (100=total damage to plant; 0=no damage to plant).
(§3) Ipomoea hederacea (IPOHE), Euphorbia heterophylla (EPHHL), Chenopodium album (CHEAL), Amaranthus palmeri (AMAPA), Lolium perenne (LOLPE), Digitaria sanguinalis (DIGSA), Eleusine indica (ELEIN), Echinochloa crus-galli (ECHCG), Setaria faberi (SETFA)

Lolium perenne (LOLPE) = details: 312 h, Application rate 500 g/Ha, post-emergence spray, evaluated after 13 days, read-out: Post-emergence efficacy LOLPE (100=total damage to plant; 0=no damage to plant)
Description: as §1, §2, §3

Setaria faberi (SETFA) = details: 312 h, Application rate 500 g/Ha, post-emergence spray, evaluated after 13 days, read-out: Post-emergence efficacy SETFA (100=total damage to plant; 0=no damage to plant)
Description: as §1, §2, §3

[2] = system: Chenopodium album (CHEAL); details: 312 h, Application rate 500 g/Ha, post-emergence spray, evaluated after 13 days, read-out: Post-emergence efficacy CHEAL (100=total damage to plant; 0=no damage to plant)
Description: as §1, §2, §3

[3] = system: Digitaria sanguinalis (DIGSA); details: 312 h, Application rate 500 g/Ha, post-emergence spray, evaluated after 13 days, read-out: Post-emergence efficacy DIGSA (100=total damage to plant; 0=no damage to plant)
Description: as §1, §2, §3

[4] = system: Euphorbia heterophylla (EPHHL); details: 312 h, Application rate 500 g/Ha, post-emergence spray, evaluated after 13 days, read-out: Post-emergence efficacy EPHHL (100=total damage to plant; 0=no damage to plant)
Description: as §1, §2, §3

[5] = system: Echinochloa crus-galli (ECHCG); details: 312 h, Application rate 500 g/Ha, post-emergence spray, evaluated after 13 days, read-out: Post-emergence efficacy ECHCG (100=total damage to plant; 0=no damage to plant)
Description: as §1, §2, §3

Eleusine indica (ELEIN) = details: 312 h, Application rate 500 g/Ha, post-emergence spray, evaluated after 13 days, read-out: Post-emergence efficacy ELEIN (100=total damage to plant; 0=no damage to plant)
Description: as §1, §2, §3

[6] = system: Ipomoea hederacea (IPOHE); details: 312 h, Application rate 500 g/Ha, post-emergence spray, evaluated after 13 days, read-out: Post-emergence efficacy IPOHE (100=total damage to plant; 0=no damage to plant)
Description: as §1, §2, §3

Structure (SMILES) | pest or weed control at 500 g/ha [1] [%] | pest or weed control at 500 g/ha (Lolium perenne (LOLPE)) [%] | pest or weed control at 500 g/ha (Setaria faberi (SETFA)) [%] | pest or weed control at 500 g/ha [2] [%] | pest or weed control at 500 g/ha [3] [%] | pest or weed control at 500 g/ha [4] [%] | pest or weed control at 500 g/ha [5] [%] | pest or weed control at 500 g/ha (Eleusine indica (ELEIN)) [%] | pest or weed control at 500 g/ha [6] [%]
Cn1cnc(-c2cc[n+](CC(=O)NCCS(=O)(=O)[O-])nc2)n1 [Compound A5, 2-[[2-[4-(1-methyl-1,2,4-triazol-3-yl)pyridazin-1-ium-1-yl]acetyl]amino]ethanesulfonate] | 90 | 50 | 90 | 80 | 90 | 60 | 100 | 60 | 20
CN(CCS(=O)(=O)[O-])C(=O)C[n+]1ccc(-c2ncn(C)n2)cn1 [Compound A6] | 90 | 20 | 80 | 80 | 90 | 70 | 90 | 80 | 30
CC(C)(NC(=O)CC[n+]1ccc(-c2nccs2)cn1)C(=O)O [Compound A15] | 100 | 30 | 100 | 100 | 100 | 50 | 100 | 90 | 40
O=C(C[n+]1ccc(-c2ncsn2)cn1)NC1(C(=O)O)CC1 [Compound A24] | 100 | 50 | 80 | 90 | 100 | 90 | 80 | 70 | 90
O=C(O)CNC(=O)C[n+]1ccc(-c2ncsn2)cn1 [Compound A23] | 100 | 50 | 80 | 100 | 40 | 90 | 50 | 70 | 90
CC(NS(=O)(=O)CC[n+]1ccc(-c2ncsn2)cn1)C(=O)O (stereo not drawn) [Compound A22] | 100 | 60 | 100 | 50 | 100 | 20 | 80 | 100 | 50
O=C(O)CNC(=O)C[n+]1ccc(-c2nccs2)cn1 [Compound A12] | 100 | 50 | 50 | 90 | 40 | 100 | 90 | 70 | 70
